Reference: ChEMBL document CHEMBL3621193, “New arylalkanones from Horsfieldia macrobotrys, effective antidiabetic agents concomitantly inhibiting α-glucosidase and free radicals” (Bioorg Med Chem Lett, 2015)

What was measured:
[1] = Inhibition of baker's yeast alpha-glucosidase type-1 using p-nitrophenyl-alpha-D-glucopyranoside as substrate preincubated for 30 mins followed by substrate addition measured after 20 mins by microplate reader analysis; design: species or system Saccharomyces cerevisiae
[2] = biological target: T1, Sucrase-isomaltase, intestinal (Rattus norvegicus, UniProt P23739); assay: Inhibition of rat intestinal Sucrase using sucrose as substrate assessed as glucose release after 40 mins by glucose oxidase method
T1 sequence (P23739 1-1013 limits assumed): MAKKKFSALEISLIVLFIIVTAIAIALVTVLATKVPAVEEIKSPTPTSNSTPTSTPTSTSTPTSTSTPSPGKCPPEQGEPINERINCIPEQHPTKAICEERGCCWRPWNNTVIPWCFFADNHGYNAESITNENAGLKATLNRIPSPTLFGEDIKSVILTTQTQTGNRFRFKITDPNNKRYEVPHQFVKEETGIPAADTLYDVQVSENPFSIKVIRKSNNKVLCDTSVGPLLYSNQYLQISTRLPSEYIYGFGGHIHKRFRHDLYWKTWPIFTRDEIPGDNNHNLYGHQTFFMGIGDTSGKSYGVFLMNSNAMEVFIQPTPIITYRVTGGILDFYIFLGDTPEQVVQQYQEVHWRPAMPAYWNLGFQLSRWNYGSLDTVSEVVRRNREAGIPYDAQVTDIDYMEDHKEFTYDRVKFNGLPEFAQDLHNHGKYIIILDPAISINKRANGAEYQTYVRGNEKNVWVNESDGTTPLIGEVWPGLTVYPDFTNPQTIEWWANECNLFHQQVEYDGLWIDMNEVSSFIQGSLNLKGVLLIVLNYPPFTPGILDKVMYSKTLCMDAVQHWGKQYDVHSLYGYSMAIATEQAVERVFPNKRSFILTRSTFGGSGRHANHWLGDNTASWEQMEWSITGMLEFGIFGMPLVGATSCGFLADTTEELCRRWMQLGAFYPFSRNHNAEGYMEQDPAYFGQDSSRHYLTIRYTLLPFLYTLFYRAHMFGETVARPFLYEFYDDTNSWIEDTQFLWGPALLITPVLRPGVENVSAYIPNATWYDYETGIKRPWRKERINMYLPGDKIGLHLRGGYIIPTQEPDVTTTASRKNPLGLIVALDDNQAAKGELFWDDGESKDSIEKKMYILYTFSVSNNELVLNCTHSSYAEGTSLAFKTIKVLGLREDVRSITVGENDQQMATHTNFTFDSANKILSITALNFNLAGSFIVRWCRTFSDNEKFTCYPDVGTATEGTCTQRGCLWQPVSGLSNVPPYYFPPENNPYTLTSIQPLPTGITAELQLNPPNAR
T1 sequence (P23739 1014-1841 limits assumed): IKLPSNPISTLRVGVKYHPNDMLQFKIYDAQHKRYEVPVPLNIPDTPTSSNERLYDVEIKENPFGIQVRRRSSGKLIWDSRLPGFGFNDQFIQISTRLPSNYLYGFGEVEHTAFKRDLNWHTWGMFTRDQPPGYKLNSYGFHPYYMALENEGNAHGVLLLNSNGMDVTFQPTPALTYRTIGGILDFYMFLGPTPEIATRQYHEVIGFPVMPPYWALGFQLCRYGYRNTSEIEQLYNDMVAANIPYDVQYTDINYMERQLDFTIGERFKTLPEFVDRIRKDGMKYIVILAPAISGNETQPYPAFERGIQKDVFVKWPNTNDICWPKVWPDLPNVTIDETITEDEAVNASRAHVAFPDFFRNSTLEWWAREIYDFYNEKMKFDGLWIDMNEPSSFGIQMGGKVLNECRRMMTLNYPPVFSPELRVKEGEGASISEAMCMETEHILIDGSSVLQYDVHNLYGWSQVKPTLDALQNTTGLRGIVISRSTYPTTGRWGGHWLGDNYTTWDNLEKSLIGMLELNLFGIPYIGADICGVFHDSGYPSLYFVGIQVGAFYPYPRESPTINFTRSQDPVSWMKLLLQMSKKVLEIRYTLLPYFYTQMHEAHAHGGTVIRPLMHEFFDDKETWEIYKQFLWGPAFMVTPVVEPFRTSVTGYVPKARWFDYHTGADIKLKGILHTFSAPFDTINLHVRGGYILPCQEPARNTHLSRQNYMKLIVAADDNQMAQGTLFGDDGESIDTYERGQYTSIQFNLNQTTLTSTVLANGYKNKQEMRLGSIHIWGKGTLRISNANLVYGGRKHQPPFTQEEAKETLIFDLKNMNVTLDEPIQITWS

[3] = Antioxidant activity assessed as DPPH radical scavenging activity incubated for 30 mins in dark condition by spectrophotometric analysis; type: physicochemical; conditions: 0.5 h
[4] = biological target: T1, Sucrase-isomaltase, intestinal; assay: Competitive inhibition of rat intestinal Sucrase using sucrose as substrate assessed as glucose release after 40 mins by Lineweaver-Burk plot analysis
[5] = biological target: T1, Sucrase-isomaltase, intestinal; assay: Non-competitive inhibition of rat intestinal Sucrase using sucrose as substrate assessed as glucose release after 40 mins by Lineweaver-Burk plot analysis

IC50 ([1]; read-out: IC50) [µM] | IC50 [2] | SC50 [3] | IC50 [1] | IC50 ([2]; read-out: IC50) [µM] | Ki [4] [µM] | Ki [5] [µM] | SMILES
529 | Not Active | 6.76 mM |  |  |  |  | O=C1C[C@@H](c2ccccc2)Oc2c1c(O)cc(O)c2[C@@H]1O[C@H](CO)[C@@H](O)[C@H](O)[C@H]1O
 | Not Active | 2.45 mM | Not Active |  |  |  | O=C1O[C@H]([C@@H](O)CO)C(O)=C1O [ASCORBIC ACID]
5.65 |  | 0.43 mM |  | 47.4 | 3070 | 380 | O=C(CCCCCCC[C@H](O)c1ccccc1)c1c(O)cc(O)c(C(CCc2ccccc2)c2ccc(O)cc2O)c1O (stereo partly drawn)
22.6 |  | 1.6 mM |  | 94.9 | 1090 | 540 | O=C(CCCCCCC[C@H](O)c1ccccc1)c1c(O)cc(O)cc1O
103 |  | Not Active |  |  |  |  | C[C@H]1O[C@H](O[C@H]2[C@H](O)[C@@H](O)[C@@H](O[C@H]3[C@H](O)[C@@H](O)C(O)O[C@@H]3CO)O[C@@H]2CO)[C@H](O)[C@@H](O)[C@@H]1N[C@H]1C=C(CO)[C@@H](O)[C@H](O)[C@H]1O (stereo partly drawn) [ACARBOSE]
